# Values quoted from earlier work in US20230048872A1, “COMPOSITIONS AND METHODS FOR DIAGNOSING OR TREATING NEUTROPHIL-MEDIATED INFLAMMATORY DISEASE” (THE BOARD OF TRUSTEES OF THE UNIVERSITY OF ILLINOIS, priority 2013, published 2023).
compound,measurement,value
"Oc1cc(O)cc(/C=C/c2ccc(O)c(O)c2)c1 [Piceatannol, piceatannol]",solubility in water,low
